pIC50: −log10 of the molar value.
Legend:
Format in all cases: biochemical
[1] = biological target: PI3K α (Homo sapiens (Human), UniProt P42336); test: PI 3-Kinase (human) HTRF assay, p110α/p85α
Experimental: (§1) An exemplary system is PI 3-Kinase (human) HTRF™ Assay from Upstate. […] Briefly, the assay is a time resolved FRET assay that indirectly measures PIP3 product formed by the activity of a PI3-K. The kinase reaction is performed in a microtitre plate (e.g., a 384 well microtitre plate). The total reaction volume is approximately 20 ul per well. In the first step, each well receives 2 ul of test compound in 20% dimethylsulphoxide resulting in a 2% DMSO final concentration. Next, approximately 14.5 ul of a kinase/PIP2 mixture (diluted in 1× reaction buffer) is added per well for a final concentration of 0.25-0.3 ug/ml kinase and 10 μM PIP2. The plate is sealed and incubated for 15 minutes at room temperature. To start the reaction, 3.5 ul of ATP (diluted in 1× reaction buffer) is added per well for a final concentration of 10 μM ATP. The plate is sealed and incubated for 1 hour at room temperature. The reaction is stopped by adding 5 ul of Stop Solution per well and then 5 ul of Detection Mix is added per well. The plate is sealed, incubated for 1 hour at room temperature, and then read on an appropriate plate reader. Data is analyzed and IC50s are generated using GraphPad Prism 5. For PI3K α, β, δ, and γ, the nM concentration of inhibitor to reach IC50 is provided.

[2] = biological target: PI3K γ (Homo sapiens (Human), UniProt P48736); test: PI 3-Kinase (human) HTRF assay, p110γ; settings: read-out: PI3K γ IC50
[3] = biological target: PI3K β (Homo sapiens (Human), UniProt P42338); test: PI 3-Kinase (human) HTRF assay, p110β/p85α
[4] = biological target: PI3K δ (Homo sapiens (Human), UniProt O00329); test: PI 3-Kinase (human) HTRF assay, p110δ/p85α
Sequence of PI3K δ (O00329 whole entry): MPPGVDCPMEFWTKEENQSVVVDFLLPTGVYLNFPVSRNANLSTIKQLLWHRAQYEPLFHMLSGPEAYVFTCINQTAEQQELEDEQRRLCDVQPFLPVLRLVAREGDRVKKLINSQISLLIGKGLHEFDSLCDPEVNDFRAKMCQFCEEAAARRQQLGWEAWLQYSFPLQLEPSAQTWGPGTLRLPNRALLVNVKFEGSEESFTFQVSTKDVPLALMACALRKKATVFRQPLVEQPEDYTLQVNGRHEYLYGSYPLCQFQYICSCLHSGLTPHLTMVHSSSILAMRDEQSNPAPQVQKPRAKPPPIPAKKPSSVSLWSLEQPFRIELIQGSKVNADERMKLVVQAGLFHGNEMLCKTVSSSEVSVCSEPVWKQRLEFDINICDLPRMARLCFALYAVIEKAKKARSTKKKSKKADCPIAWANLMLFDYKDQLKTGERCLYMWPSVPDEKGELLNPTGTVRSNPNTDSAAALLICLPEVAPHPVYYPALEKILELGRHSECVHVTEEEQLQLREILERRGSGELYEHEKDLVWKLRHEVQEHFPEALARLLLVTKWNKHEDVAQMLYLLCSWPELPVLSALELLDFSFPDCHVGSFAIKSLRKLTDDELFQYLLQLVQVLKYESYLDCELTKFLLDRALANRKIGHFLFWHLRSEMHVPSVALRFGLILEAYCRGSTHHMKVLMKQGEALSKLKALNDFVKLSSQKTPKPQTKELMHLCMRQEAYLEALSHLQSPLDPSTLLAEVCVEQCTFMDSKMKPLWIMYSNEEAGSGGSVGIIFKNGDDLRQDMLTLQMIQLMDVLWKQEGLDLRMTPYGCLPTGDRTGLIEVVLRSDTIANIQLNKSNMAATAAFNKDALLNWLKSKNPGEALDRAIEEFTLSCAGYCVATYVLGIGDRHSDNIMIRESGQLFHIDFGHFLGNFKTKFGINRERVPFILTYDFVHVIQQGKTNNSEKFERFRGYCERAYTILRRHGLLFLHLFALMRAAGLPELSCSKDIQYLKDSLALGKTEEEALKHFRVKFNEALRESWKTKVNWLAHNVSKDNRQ
Sequence of PI3K δ (P27986 whole entry partner): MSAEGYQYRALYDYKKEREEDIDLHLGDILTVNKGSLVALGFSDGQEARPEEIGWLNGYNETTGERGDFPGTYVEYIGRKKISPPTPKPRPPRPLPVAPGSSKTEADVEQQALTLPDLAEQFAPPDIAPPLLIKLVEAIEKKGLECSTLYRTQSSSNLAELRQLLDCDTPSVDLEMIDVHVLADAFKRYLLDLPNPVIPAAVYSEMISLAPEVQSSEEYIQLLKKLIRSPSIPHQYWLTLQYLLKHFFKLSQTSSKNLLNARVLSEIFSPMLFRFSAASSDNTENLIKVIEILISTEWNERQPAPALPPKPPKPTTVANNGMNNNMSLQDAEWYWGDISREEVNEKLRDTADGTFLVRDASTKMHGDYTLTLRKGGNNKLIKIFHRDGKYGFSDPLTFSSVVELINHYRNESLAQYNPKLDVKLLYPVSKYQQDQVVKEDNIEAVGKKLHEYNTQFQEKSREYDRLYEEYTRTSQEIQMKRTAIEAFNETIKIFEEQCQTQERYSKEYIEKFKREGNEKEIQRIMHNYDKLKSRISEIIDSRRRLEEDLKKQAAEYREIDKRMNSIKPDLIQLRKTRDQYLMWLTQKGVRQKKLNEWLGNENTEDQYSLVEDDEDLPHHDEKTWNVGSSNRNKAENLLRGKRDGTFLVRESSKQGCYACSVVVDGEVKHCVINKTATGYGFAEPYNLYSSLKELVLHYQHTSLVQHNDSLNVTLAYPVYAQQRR
Experimental: as §1

Sequence of PI3K α (P42336 whole entry): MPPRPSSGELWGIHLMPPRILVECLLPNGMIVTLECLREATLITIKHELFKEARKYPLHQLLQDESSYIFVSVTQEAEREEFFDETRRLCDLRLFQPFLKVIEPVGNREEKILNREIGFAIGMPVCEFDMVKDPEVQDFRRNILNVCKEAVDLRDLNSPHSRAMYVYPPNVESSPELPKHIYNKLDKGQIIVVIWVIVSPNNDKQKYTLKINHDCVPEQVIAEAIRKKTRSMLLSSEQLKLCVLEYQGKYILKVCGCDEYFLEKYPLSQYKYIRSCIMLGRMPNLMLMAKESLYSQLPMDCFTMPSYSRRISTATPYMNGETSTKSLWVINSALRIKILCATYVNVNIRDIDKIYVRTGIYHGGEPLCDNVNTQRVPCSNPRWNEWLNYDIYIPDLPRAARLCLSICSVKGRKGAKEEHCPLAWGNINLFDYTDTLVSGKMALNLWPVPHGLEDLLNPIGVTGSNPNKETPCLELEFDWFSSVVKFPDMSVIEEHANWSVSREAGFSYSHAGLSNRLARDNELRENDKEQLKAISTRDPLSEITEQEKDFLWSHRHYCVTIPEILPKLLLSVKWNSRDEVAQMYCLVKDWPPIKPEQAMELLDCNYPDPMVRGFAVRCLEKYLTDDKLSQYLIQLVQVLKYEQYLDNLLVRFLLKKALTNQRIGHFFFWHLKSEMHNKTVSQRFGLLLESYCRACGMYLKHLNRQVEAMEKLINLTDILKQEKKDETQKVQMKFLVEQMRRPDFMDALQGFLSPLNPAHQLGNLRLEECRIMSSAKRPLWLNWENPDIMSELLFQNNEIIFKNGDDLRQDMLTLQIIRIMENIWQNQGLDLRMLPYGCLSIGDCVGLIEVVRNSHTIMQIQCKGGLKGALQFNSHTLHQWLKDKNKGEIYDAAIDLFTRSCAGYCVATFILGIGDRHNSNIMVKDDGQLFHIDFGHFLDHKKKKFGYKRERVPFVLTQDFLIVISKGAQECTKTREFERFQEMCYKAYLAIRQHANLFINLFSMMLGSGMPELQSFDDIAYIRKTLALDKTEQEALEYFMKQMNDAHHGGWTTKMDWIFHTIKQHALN
Sequence of PI3K α (P27986 whole entry partner): as the sequence (P27986 whole entry partner) above
Sequence of PI3K β (P42338 whole entry): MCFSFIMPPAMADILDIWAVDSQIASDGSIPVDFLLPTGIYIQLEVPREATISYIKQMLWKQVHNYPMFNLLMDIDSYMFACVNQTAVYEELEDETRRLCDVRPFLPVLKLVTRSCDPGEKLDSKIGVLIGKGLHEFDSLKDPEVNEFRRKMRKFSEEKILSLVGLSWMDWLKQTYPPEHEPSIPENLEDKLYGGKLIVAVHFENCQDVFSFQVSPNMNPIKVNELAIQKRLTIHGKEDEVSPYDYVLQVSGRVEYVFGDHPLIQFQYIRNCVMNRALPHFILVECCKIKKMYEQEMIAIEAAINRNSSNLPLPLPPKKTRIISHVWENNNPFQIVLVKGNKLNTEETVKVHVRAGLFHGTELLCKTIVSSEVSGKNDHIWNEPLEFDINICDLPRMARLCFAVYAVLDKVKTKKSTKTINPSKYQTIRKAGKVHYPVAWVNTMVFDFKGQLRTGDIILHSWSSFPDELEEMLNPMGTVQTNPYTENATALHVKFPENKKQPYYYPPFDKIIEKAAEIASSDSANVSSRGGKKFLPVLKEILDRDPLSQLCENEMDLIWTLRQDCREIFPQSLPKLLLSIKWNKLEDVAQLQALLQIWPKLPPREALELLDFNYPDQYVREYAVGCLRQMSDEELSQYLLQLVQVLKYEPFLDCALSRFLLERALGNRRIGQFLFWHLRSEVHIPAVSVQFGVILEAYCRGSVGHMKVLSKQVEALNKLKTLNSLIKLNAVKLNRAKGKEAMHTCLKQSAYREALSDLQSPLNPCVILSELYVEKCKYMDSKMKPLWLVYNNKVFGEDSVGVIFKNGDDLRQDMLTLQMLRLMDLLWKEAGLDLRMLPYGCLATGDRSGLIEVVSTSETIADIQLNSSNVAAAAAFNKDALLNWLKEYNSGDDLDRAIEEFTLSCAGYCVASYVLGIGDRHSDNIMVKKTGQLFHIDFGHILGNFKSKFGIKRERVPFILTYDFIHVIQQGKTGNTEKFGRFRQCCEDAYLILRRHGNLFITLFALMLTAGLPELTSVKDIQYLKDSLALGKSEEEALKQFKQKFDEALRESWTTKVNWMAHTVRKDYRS
Sequence of PI3K β (P27986 whole entry partner): as the sequence (P27986 whole entry partner) above
Sequence of PI3K γ (P48736 whole entry): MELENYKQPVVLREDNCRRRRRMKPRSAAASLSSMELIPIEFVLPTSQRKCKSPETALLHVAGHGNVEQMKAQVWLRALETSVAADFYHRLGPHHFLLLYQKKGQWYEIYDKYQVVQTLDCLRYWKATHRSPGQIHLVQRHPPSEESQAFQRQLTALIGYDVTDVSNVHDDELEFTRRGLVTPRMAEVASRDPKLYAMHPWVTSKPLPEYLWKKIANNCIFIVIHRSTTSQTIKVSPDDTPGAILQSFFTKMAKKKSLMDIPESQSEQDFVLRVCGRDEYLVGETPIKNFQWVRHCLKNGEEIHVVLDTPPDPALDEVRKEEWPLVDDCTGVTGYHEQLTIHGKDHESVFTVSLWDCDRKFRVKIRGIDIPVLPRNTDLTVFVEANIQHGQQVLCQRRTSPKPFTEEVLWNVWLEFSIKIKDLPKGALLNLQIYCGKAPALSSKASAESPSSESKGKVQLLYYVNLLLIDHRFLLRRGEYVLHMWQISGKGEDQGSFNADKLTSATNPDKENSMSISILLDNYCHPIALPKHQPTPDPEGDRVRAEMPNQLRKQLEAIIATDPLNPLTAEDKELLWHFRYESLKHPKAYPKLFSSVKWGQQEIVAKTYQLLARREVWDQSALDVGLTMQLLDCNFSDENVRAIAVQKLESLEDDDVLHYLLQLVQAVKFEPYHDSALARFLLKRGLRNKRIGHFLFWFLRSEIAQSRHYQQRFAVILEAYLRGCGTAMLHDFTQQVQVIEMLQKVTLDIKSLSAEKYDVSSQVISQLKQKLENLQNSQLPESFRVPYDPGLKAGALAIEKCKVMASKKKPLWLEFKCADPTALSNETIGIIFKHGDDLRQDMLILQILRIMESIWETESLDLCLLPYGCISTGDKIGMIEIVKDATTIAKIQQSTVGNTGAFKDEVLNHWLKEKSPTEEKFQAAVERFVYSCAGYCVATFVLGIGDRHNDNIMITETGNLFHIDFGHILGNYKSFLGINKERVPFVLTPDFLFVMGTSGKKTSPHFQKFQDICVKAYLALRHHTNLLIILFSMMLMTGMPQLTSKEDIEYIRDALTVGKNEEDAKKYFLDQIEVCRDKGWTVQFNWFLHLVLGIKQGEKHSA

Row | Structure (SMILES) | pIC50 [1] | pIC50 [2] | pIC50 [3] | pIC50 [4]
1 | CCN1CCC(n2cnc3ccc(-c4ccc5oc(N)nc5c4)cc3c2=O)CC1 | > 6.00 | < 5.00 | > 5.00 | < 5.00
2 | Nc1nc2cc(-c3ccc4ncc(C(=O)NCCO)n4c3)ccc2o1 | > 7.00 | > 7.00 | > 6.00 | > 6.00
3 | Nc1nc2cc(-c3ccc4ncc(C5=CCOCC5)nc4n3)ccc2o1 | > 7.00 | > 7.00 | > 5.00 | < 5.00
4 | Nc1nc2cc(-c3cn4c(C(=O)N5CCOCC5)cnc4cn3)ccc2o1 | < 5.00 | < 5.00 | < 5.00 | < 5.00
5 | Nc1nc2cc(-c3ccc4ncc(-c5cccnc5)n4n3)ccc2o1 | > 7.00 | > 7.00 | > 7.00 | > 7.00
6 | CN1CCC(N(C)c2cnc3ccc(-c4ccc5oc(N)nc5c4)cc3n2)CC1 | > 7.00 | > 5.00 | > 5.00 | > 6.00
7 | CCn1cnc2ccc(-c3ccc4oc(N)nc4c3)cc2c1=O | > 7.00 | > 7.00 | > 5.00 | > 5.00
8 | Nc1nc2cc(-c3cc4nccc(-c5ccncc5)c4s3)ccc2o1 [Compound 14] | > 5.00 | > 5.00 | < 5.00 | < 5.00
9 | CC(C)(C#N)c1ccc(Nc2ncnc3ccc(-c4ccc5oc(N)nc5c4)cc23)cc1 | > 7.00 | > 7.00 | > 6.00 | > 6.00
10 | Nc1nc2cc(-c3cnc4ccc(N5CCOCC5)nc4c3)ccc2o1 | > 5.00 | > 5.00 | < 5.00 | < 5.00
11 | CC1CN(c2cnc3ccc(-c4ccc5oc(N)nc5c4)cc3n2)CC(C)N1 (stereo not drawn) | > 6.00 | > 6.00 | > 6.00 | > 6.00
12 | Nc1nc2ccc(-c3ccc4ncn(C5CCOCC5)c(=O)c4c3)cc2o1 | > 5.00 | < 5.00 | < 5.00 | < 5.00
13 | Nc1nc2cc(-c3ccc4nc(N5CCOCC5)cnc4n3)ccc2o1 | < 5.00 | < 5.00 | < 5.00 | < 5.00
14 | CN1CCN(C(=O)c2cnc3cnc(-c4ccc5oc(N)nc5c4)cn23)CC1 | > 5.00 | < 5.00 | < 5.00 | < 5.00
15 | Nc1nc2cc(-c3ccc4ncc(C(=O)N5CCCC5)n4c3)ccc2o1 | > 7.00 | > 7.00 | > 5.00 | > 6.00
16 | C[C@H]1COCCN1c1cnc2ccc(-c3ccc4oc(N)nc4c3)nc2n1 | > 7.00 | > 7.00 | > 5.00 | < 5.00
17 | CCN1CCN(C(=O)c2cnc3ccc(-c4ccc5oc(N)nc5c4)cn23)CC1 | > 6.00 | > 5.00 | < 5.00 | < 5.00
18 | Nc1nc2cc(-c3c[nH]c4nccc(-c5ccncc5)c34)ccc2o1 [Compound 25] | > 5.00 | > 5.00 | < 5.00 | < 5.00
19 | CC(=O)NC1CCN(C(=O)c2cnc3ccc(-c4ccc5oc(N)nc5c4)cn23)CC1 | > 6.00 | > 5.00 | > 5.00 | > 5.00

Row | Structure (SMILES) | pIC50 [1] | pIC50 [2] | pIC50 [3] | pIC50 [4]
20 | CC(C)(N)C(=O)N1CCN(c2ccc3ncc(-c4ccc5oc(N)nc5c4)cc3n2)CC1 | > 5.00 | > 5.00 | < 5.00 | < 5.00
21 | CN1CC(C(=O)N2CCC(Nc3ncnc4ccc(-c5ccc6oc(N)nc6c5)cc34)CC2)C1 | > 7.00 | > 6.00 | > 6.00 | > 7.00
22 | Nc1nc2cc(-c3ccc4ncc(NC5CCOCC5)nc4c3)ccc2o1 | > 7.00 | > 7.00 | > 5.00 | > 6.00
23 | CS(=O)(=O)N1CCN(c2cnc3ccc(-c4ccc5oc(N)nc5c4)cc3n2)CC1 | > 7.00 | > 7.00 | > 6.00 | > 6.00
24 | Nc1nc2cc(-c3ccc4ncc(C(=O)N5CCN(CC6CC6)CC5)n4c3)ccc2o1 | > 6.00 | > 5.00 | > 5.00 | > 5.00
25 | Nc1nc2cc(-c3cnc4ccc(N5C6CCC5COC6)nc4c3)ccc2o1 | > 5.00 | > 5.00 | < 5.00 | < 5.00
26 | CC1CN(c2cnc3ccc(-c4ccc5oc(N)nc5c4)cc3n2)CCO1 (stereo not drawn) | > 7.00 | > 7.00 | > 6.00 | > 5.00
27 | C[C@@H]1COCCN1C1CN(c2cnc3ccc(-c4ccc5oc(N)nc5c4)nc3n2)C1 | > 5.00 | > 5.00 | < 5.00 | < 5.00
28 | Nc1nc2cc(-c3ccc4ncc(-c5ccccc5)nc4c3)ccc2o1 | > 6.00 | < 5.00 | < 5.00 | < 5.00
29 | Nc1nc2cc(-c3ccc4ncc(N5CCOCC5)nc4c3)ccc2s1 | > 7.00 | > 6.00 | > 6.00 | < 5.00
30 | CS(=O)(=O)N1CCN(C2CN(c3cnc4ccc(-c5ccc6oc(N)nc6c5)nc4n3)C2)CC1 | > 7.00 | > 6.00 | < 5.00 | > 5.00
31 | Nc1nc2cc(-c3ccc4ncnc(NC5CCOCC5)c4c3)ccc2o1 [Compound 24] | > 7.00 | > 7.00 | > 6.00 | > 7.00
32 | CC1(C)CN(C2CN(c3cnc4ccc(-c5ccc6oc(N)nc6c5)nc4n3)C2)CCO1 | > 6.00 | > 5.00 | < 5.00 | < 5.00
33 | Nc1nc2cc(-c3ccc4ncc(C(=O)N5CCC(O)CC5)n4c3)ccc2o1 | > 6.00 | > 5.00 | < 5.00 | < 5.00
34 | CN1CCC(Nc2cnc3ccc(-c4ccc5oc(N)nc5c4)cc3n2)CC1 | > 7.00 | > 6.00 | > 6.00 | > 7.00
35 | Nc1nc2cc(-c3ccc4ncc(-c5ccc(N6CCOCC6)nc5)n4c3)ccc2o1 [Compound 51] | > 7.00 | > 6.00 | > 6.00 | > 6.00
36 | Nc1nc2cc(-c3ccc4ncc(N5CC(N6CCN(C7CC7)CC6)C5)cc4n3)ccc2o1 | > 7.00 | > 6.00 | > 5.00 | > 5.00
37 | CN1CCC(N(C)c2ncnc3ccc(-c4ccc5oc(N)nc5c4)cc23)CC1 | > 7.00 | > 7.00 | > 7.00 | > 6.00
38 | Nc1nc2ccc(-c3ccc4ncc(C(=O)N5CCOCC5)n4c3)cc2s1 | > 6.00 | > 6.00 | < 5.00 | > 5.00

Row | Structure (SMILES) | pIC50 [1] | pIC50 [2] | pIC50 [3] | pIC50 [4]
39 | CN1CCN(c2ccc3ncc(-c4ccc5oc(N)nc5c4)cc3n2)CC1 | > 5.00 | < 5.00 | > 5.00 | < 5.00
40 | CS(=O)(=O)N1CCN(C(=O)c2cnc3ccc(-c4ccc5oc(N)nc5c4)cn23)CC1 | > 7.00 | > 6.00 | < 5.00 | > 5.00
41 | Nc1nc2cc(-c3ccc4ncc(C(=O)N5CCS(=O)(=O)CC5)n4c3)ccc2o1 | > 6.00 | > 5.00 | < 5.00 | < 5.00
42 | CN1CCC(NC(=O)c2cnc3ccc(-c4ccc5oc(N)nc5c4)cn23)CC1 | > 7.00 | > 6.00 | > 6.00 | > 7.00
43 | CN1CCN(C(=O)c2cnc3ccc(-c4ccc5nc(N)oc5c4)cn23)CC1 | > 6.00 | < 5.00 | > 5.00 | < 5.00
44 | Nc1nsc2cc(-c3ccc4nccc(-c5ccncc5)c4c3)ccc12 [Compound 13] | > 7.00 | > 6.00 | > 6.00 | > 6.00
45 | Nc1noc2ccc(-c3ccc4nccc(-c5ccncc5)c4c3)cc12 [Compound 18] | > 5.00 | > 5.00 | < 5.00 | < 5.00
46 | CN(CCN1CCOCC1)c1cnc2ccc(-c3ccc4oc(N)nc4c3)cc2n1 | > 6.00 | > 5.00 | > 5.00 | < 5.00
47 | Nc1nc2cc(-c3ccc4ncc(N5CCNCC5)nc4c3)ccc2o1 | > 7.00 | > 6.00 | > 7.00 | > 5.00
48 | Nc1nc2cc(-c3ccc4ncc(-c5cccnc5)cc4n3)ccc2o1 | > 7.00 | > 7.00 | > 5.00 | > 5.00
49 | CN1CCN(c2ccnc3ccc(-c4ccc5oc(N)nc5c4)cc23)CC1 [Compound 21] | > 6.00 | > 5.00 | > 5.00 | > 5.00
50 | Nc1nc2cc(-c3cn4c(-c5cn[nH]c5)cnc4cn3)ccc2o1 | > 6.00 | > 6.00 | > 5.00 | > 5.00
51 | Nc1nc2cc(-c3ccc4ncc(N5CCOCC5)n4c3)ccc2o1 [Compound 53] | > 5.00 | < 5.00 | < 5.00 | < 5.00
52 | Nc1nc2cc(-c3ccc4ncc(N5CCN(CCO)CC5)nc4c3)ccc2o1 | > 7.00 | > 6.00 | > 7.00 | > 5.00
53 | CN1CCN(c2ncnc3ccc(-c4ccc5oc(N)nc5c4)cc23)CC1 [Compound 23] | > 7.00 | > 7.00 | > 6.00 | > 5.00
54 | Nc1nc2cc(-c3ccc4ncc(N5CC(N6C7CCC6COC7)C5)cc4n3)ccc2o1 | > 7.00 | > 6.00 | < 5.00 | > 5.00
55 | Nc1nc2cc(-c3ccc4ncc(C(=O)N5CCOCC5)nc4c3)ccc2o1 | > 5.00 | < 5.00 | < 5.00 | < 5.00
56 | Nc1nc2cc(-c3ccc4ncc(C(=O)N5CCOCC5)n4n3)ccc2o1 | > 6.00 | > 6.00 | > 5.00 | < 5.00
57 | C[C@@H]1COCCN1c1cnc2ccc(-c3ccc4oc(N)nc4c3)nc2n1 | > 7.00 | > 7.00 | > 5.00 | > 5.00

From patent publication US9682141B2, “Combination of kinase inhibitors and uses thereof” (INTELLIKINE LLC, priority 2011, dated 2017)
